Experimental findings from patent publication US20190284168A1, “PYRAZOLE DERIVATIES AS SGC STIMULATORS” (IRONWOOD PHARMACEUTICALS, INC., priority 2014, published 2019) are described below.

Like-named read-outs stand apart in the source and are kept apart here.

The assay has as its target T1, soluble guanylate cyclase (sGC) (Homo sapiens, UniProt Q02108+Q02153).
T1 construct: endogenously expressing soluble guanylate cyclase (sGC); endogenous in cells; host or cells: HEK293
T1 sequence (Q02153 1-619): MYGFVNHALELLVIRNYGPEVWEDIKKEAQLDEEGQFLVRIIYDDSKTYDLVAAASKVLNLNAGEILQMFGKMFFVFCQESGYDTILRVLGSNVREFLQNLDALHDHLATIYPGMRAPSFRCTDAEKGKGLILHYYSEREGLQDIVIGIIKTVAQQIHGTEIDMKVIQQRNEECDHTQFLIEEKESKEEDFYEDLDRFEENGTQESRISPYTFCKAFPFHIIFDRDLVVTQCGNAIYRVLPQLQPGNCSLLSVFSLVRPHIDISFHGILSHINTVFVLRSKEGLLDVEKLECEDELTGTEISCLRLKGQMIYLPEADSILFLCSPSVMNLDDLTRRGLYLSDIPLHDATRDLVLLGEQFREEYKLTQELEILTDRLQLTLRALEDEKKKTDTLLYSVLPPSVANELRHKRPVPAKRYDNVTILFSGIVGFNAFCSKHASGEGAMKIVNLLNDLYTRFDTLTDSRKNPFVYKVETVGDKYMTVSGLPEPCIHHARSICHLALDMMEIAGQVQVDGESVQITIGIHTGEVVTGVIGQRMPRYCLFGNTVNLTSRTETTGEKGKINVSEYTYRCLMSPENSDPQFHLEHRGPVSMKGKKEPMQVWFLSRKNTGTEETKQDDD
T1 sequence (Q02108 1-690): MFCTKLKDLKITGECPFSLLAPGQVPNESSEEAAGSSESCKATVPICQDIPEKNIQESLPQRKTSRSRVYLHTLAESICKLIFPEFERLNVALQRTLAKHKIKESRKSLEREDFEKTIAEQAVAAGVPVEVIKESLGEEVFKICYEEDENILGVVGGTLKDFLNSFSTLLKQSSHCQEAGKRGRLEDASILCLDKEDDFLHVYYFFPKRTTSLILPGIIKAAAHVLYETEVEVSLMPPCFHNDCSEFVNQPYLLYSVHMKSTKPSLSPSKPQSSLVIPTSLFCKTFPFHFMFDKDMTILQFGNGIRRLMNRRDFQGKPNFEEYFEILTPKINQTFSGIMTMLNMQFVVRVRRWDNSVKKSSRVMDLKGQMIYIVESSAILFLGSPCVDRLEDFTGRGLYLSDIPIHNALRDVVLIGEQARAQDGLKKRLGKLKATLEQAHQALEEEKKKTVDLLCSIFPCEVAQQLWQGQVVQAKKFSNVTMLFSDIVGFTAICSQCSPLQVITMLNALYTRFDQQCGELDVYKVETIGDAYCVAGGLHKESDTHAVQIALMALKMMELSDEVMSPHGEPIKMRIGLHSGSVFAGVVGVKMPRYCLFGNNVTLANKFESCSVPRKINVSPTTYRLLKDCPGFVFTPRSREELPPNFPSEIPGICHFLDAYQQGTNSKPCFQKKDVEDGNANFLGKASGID
The experiment in a line: sGC-HEK-cGMP assay with LC/MS detection. In kind it is cell-based.

The mark [1] stands for this setting: HEK293 whole cells, LC/MS detection of cGMP, 10 μM DETA-NONOate, 50% of high control response (30 μM Compound Y), read-out: Absolute EC50 (nM)- binned (~).

Description: Human embryonic kidney cells (HEK293), endogenously expressing soluble guanylate cyclase (sGC), were used to evaluate the activity of test compounds. Compounds stimulating the sGC enzyme should cause an increase in the intracellular concentration of cGMP. HEK 293 cells were seeded in Dulbecco's Modification of Eagle's Medium supplemented with fetal bovine serum (10% final) and penicillin (100 U/mL)/streptomycin (100 μg/mL) in a 50 μL volume at a density of 1.5×10^4 cells/well in a poly-D-lysine coated 384 well flat bottom plate. Cells were incubated overnight at 37° C. in a humidified chamber with 5% CO2. Medium was aspirated and cells were washed with 1× Hank's Buffered Saline Salt Solution (50 μL). Cells were then incubated for 15 minutes at 37° C. with 50 μL of a 0.5 mM 3-isobutyl-1-methylxanthine (IBMX) solution.
were then added to the assay mixture and the resulting mixture incubated at 37° C. for 20 minutes. After the 20 minute incubation, the assay mixture was aspirated and 10% acetic acid containing 150 ng/mL+3-cGMP (internal standard for LCMS) (50 μL) was added to the cells. The plate was incubated at 4° C. for 30 minutes in the acetic acid solution to stop the reaction and lyse the cells. The plates were then centrifuged at 1,000 g for 3 minutes at 4° C. and the supernatant transferred to a clean reaction plate for LCMS analysis.
cGMP concentrations were determined from each sample using the LCMS conditions below (Table 2) and calculated standard curve.
Data were fit using a 4-parameter fit (log(agonist) vs. response—variable slope) using GraphPad Prism Software v.5. n=2 for all compounds. […] Compounds failing to elicit a minimum response of 50% are reported as >30 μM.

As usually defined, the EC50 is the concentration that produces a half-maximal response. On to `CNc1cc(-c2ncc(F)c(O)n2)nn1Cc1ccccc1F` [Compound 1], for which the EC50 under setting [1] was above 1000 nM.

As to `CC(C)(NC(=O)OCc1ccccc1)C(=O)Nc1ccnc(-c2cc(-c3ccon3)n(Cc3ccccc3F)n2)n1` [Compound 5], under setting [1], the half-maximal effective concentration (EC50) is above 1000 nM.

As to `NC(=O)CNc1cnc(-c2cc(-c3ccon3)n(Cc3ccccc3F)n2)nc1` [Compound 6], the concentration for a half-maximal effect (EC50) under setting [1] is above 1000 nM.

For the molecule `O=[N+]([O-])c1cnc(-c2cc(-c3ccon3)n(Cc3ccccc3F)n2)nc1NCCO` [Compound 7], the EC50 under setting [1] was above 30000 nM.

Take `OCCNc1cnc(-c2cc(-c3ccon3)n(Cc3ccccc3F)n2)nc1` [Compound 8]: the half-maximal effective concentration (EC50) under setting [1] lay in the range of 100 to 1000 nM.

On to `NCCNc1cnc(-c2cc(-c3ccon3)n(Cc3ccccc3F)n2)nc1` [Compound 9], for which the EC50 under setting [1] was above 1000 nM.

As to `Nc1nc(-c2cc(-c3ccon3)n(Cc3ccccc3F)n2)ncc1NCCO` [Compound 10], the half-maximal effective concentration (EC50) under setting [1] was above 1000 nM.

On to `Fc1ccccc1Cn1nc(-c2ncc(F)c(Nc3nnc(C(F)(F)F)[nH]3)n2)cc1-c1ccon1` [Compound 12], for which the EC50 under setting [1] is above 30000 nM.

`O=C(NNC(=O)C(F)(F)F)Nc1nc(-c2cc(-c3ccon3)n(Cc3ccccc3F)n2)ncc1F` [Compound 13]: the EC50 under setting [1] is above 1000 nM.

Take `Cc1nnc(Nc2nc(-c3cc(-c4ccon4)n(Cc4ccccc4F)n3)ncc2F)o1` [Compound 14]: the EC50 under setting [1] was 100 to 1000 nM.

On to `NC(=O)C(F)(F)CNc1nc(-c2cc(-c3ccon3)n(Cc3ccccc3F)n2)ncc1F` [Compound 15], for which the EC50 under setting [1] is below 100 nM.

Regarding `Fc1ccccc1Cn1nc(-c2ncc(F)c(N3CCCO3)n2)cc1-c1ccon1` [Compound 16], the concentration for a half-maximal effect (EC50) under setting [1] lay within 100 to 1000 nM.

Regarding `Nc1nc(-c2cc(-c3ccon3)n(Cc3ccccc3F)n2)nc(N)c1NS(=O)(=O)CCC(F)(F)F` [Compound 19], the concentration for a half-maximal effect (EC50) under setting [1] is above 1000 nM.

For the molecule `COCc1cc(-c2ncc(F)c(NCC(O)(C(N)=O)C(F)(F)F)n2)nn1Cc1ccccc1F` (stereo not drawn) [Compound 20], under setting [1], the EC50 was above 30000 nM.

As to `OCC(O)CNc1cnc(-c2cc(-c3ccon3)n(Cc3ccccc3F)n2)nc1` (stereo not drawn) [Compound 21], the EC50 under setting [1] is above 1000 nM.

Consider `CS(=O)(=O)CCNc1cnc(-c2cc(-c3ccon3)n(Cc3ccccc3F)n2)nc1` [Compound 22], for which the half-maximal effective concentration (EC50) under setting [1] is above 1000 nM.

Take `CS(=O)(=O)NCCNc1cnc(-c2cc(-c3ccon3)n(Cc3ccccc3F)n2)nc1` [Compound 24]: the EC50 under setting [1] is 100 to 1000 nM.

Take `OC(CNc1nc(-n2cc(-c3ccon3)c(Cc3ccccc3F)n2)ncc1F)(C(F)(F)F)C(F)(F)F` [Compound 26]: under setting [1], the EC50 lay in the range of 100 to 1000 nM.

`Oc1cc(CNc2nc(-c3cc(-c4ccon4)n(Cc4ccccc4F)n3)ncc2F)on1` [Compound 28] showed a 50% effective concentration (EC50) below 100 nM.

`CC1(C#N)C(=O)Nc2nc(-c3cc(-c4ccon4)n(Cc4ccccc4F)n3)nc(N)c21` (stereo not drawn) [Compound 29]: the concentration for a half-maximal effect (EC50) under setting [1] is below 100 nM.

Regarding `NC(=O)C(O)(CNc1nc(-n2cc(-c3ccon3)c(Cc3ccccc3F)n2)ncc1F)C(F)(F)F` (stereo not drawn) [Compound 30], the EC50 under setting [1] fell in the range of 100 to 1000 nM.

As for `CC(C)(N)C(=O)Nc1ccnc(-c2cc(-c3ccon3)n(Cc3ccccc3F)n2)n1` [Compound 33], under setting [1], the EC50 is above 1000 nM.

With `Fc1ccccc1Cn1nc(-c2ncc(F)c(N3CCCCO3)n2)cc1-c1ccon1` [Compound 34], the half-maximal effective concentration (EC50) under setting [1] fell in the range of 100 to 1000 nM.

In the case of `CC(C(N)=O)C(=O)Nc1ccnc(-c2cc(-c3ccon3)n(Cc3ccccc3F)n2)n1` (stereo not drawn) [Compound 35], the concentration for a half-maximal effect (EC50) under setting [1] was above 1000 nM.

As for `CC(O)(C(N)=O)C(=O)Nc1ccnc(-c2cc(-c3ccon3)n(Cc3ccccc3F)n2)n1` (stereo not drawn) [Compound 36], under setting [1], the EC50 was in the range of 100 to 1000 nM.

Consider `NC(=O)Cc1c[nH]n(-c2nc(-c3cc(-c4ccon4)n(Cc4ccccc4F)n3)ncc2F)c1=O` [Compound 40], for which, under setting [1], the EC50 was above 1000 nM.

As for `NC(=O)Cc1cn(-c2nc(-c3cc(-c4ccon4)n(Cc4ccccc4F)n3)ncc2F)[nH]c1=O` [Compound 41], the half-maximal effective concentration (EC50) under setting [1] is above 1000 nM.

Take `Nc1nnc(C(O)(CNc2nc(-c3cc(-c4ccon4)n(Cc4ccccc4F)n3)ncc2F)C(F)(F)F)o1` (stereo not drawn) [Compound 42]: under setting [1], the EC50 fell in the range of 100 to 1000 nM.

`O=c1n(-c2nc(-c3cc(-c4ccon4)n(Cc4ccccc4F)n3)ncc2F)nc2n1CCNC2` [Compound 43]: under setting [1], the EC50 is above 1000 nM.

Turning to `CCC(C)(NC(=O)OCc1ccccc1)C(=O)Nc1ccnc(-c2cc(-c3ccon3)n(Cc3ccccc3F)n2)n1` (stereo not drawn) [Compound 46], the EC50 under setting [1] is above 1000 nM.

`CCC(C)(N)C(=O)Nc1ccnc(-c2cc(-c3ccon3)n(Cc3ccccc3F)n2)n1` (stereo not drawn) [Compound 47]: the half-maximal effective concentration (EC50) under setting [1] was 100 to 1000 nM.

Consider `CC(C)(C(N)=O)C(=O)Nc1nc(-c2cc(-c3ccon3)n(Cc3ccccc3F)n2)ncc1F` [Compound 48], for which, under setting [1], the EC50 is above 1000 nM.

Consider `CC(C)(C(=O)O)C(=O)Nc1ccnc(-c2cc(-c3ccon3)n(Cc3ccccc3F)n2)n1` [Compound 49], for which, under setting [1], the concentration for a half-maximal effect (EC50) is above 1000 nM.

With `CC(C)(C(N)=O)C(=O)Nc1ccnc(-c2cc(-c3ccon3)n(Cc3ccccc3F)n2)n1` [Compound 51], under setting [1], the EC50 was in the range of 100 to 1000 nM.

Turning to `Cc1nnc(C(O)(CNc2nc(-c3cc(-c4ccon4)n(Cc4ccccc4F)n3)ncc2F)C(F)(F)F)o1` (stereo not drawn) [Compound 52], the EC50 under setting [1] is below 100 nM.

As to `NC(=O)c1nnc2n1CCN(c1nc(-c3cc(-c4ccon4)n(Cc4ccccc4F)n3)ncc1F)C2` [Compound 54], the 50% effective concentration (EC50) under setting [1] was below 100 nM.

On to `CCC(C)(N)CNc1nc(-c2cc(-c3ccon3)n(Cc3ccccc3F)n2)ncc1F` (stereo not drawn) [Compound 55], for which the concentration for a half-maximal effect (EC50) under setting [1] was 100 to 1000 nM.

`COc1nn(-c2nc(-c3cc(-c4ccon4)n(Cc4ccccc4F)n3)ncc2F)cc1CC(N)=O` [Compound 57]: under setting [1], the EC50 is above 30000 nM.

`CC1(C(=O)Nc2ccnc(-c3cc(-c4ccon4)n(Cc4ccccc4F)n3)n2)CCNC1=O` (stereo not drawn) [Compound 59]: the EC50 under setting [1] is 100 to 1000 nM.

On to `NC(=O)C1CCN(c2nc(-c3cc(-c4ccon4)n(Cc4ccccc4F)n3)ncc2F)CC1` [Compound 60], for which the EC50 under setting [1] is below 100 nM.

For the molecule `CCOC(=O)C(C)(C)c1nnc(-c2cc(-c3ccon3)n(Cc3ccccc3F)n2)nc1OC` [Compound 61], the EC50 under setting [1] is above 1000 nM.

Take `Cn1ccnc1C(O)(CNc1nc(-c2cc(-c3ccon3)n(Cc3ccccc3F)n2)ncc1F)C(F)(F)F` (stereo not drawn) [Compound 64]: the EC50 under setting [1] is 100 to 1000 nM.

With `O=C(NC1CC1)C(O)(CNc1nc(-c2cc(-c3ccon3)n(Cc3ccccc3F)n2)ncc1F)C(F)(F)F` (stereo not drawn) [Compound 65], the EC50 under setting [1] was below 100 nM.

Take `CCOC(=O)C(C)(C)C(=O)Nc1ccnc(-c2cc(-c3ccon3)n(Cc3ccccc3F)n2)n1` [Compound 66]: the EC50 under setting [1] was above 1000 nM.

On to `CC(N)(CNc1nc(-c2cc(-c3ccon3)n(Cc3ccccc3F)n2)ncc1F)C1CC1` (stereo not drawn) [Compound 67], for which the half-maximal effective concentration (EC50) under setting [1] lay in the range of 100 to 1000 nM.

`NC1(CNc2nc(-c3cc(-c4ccon4)n(Cc4ccccc4F)n3)ncc2F)CC1` [Compound 68]: the EC50 under setting [1] fell in the range of 100 to 1000 nM.

As to `OC(CNc1nc(-c2cc(-c3ccon3)n(Cc3ccccc3F)n2)ncc1F)(c1nnc(C2CC2)o1)C(F)(F)F` (stereo not drawn) [Compound 69, 2-(5-cyclopropyl-1,3,4-oxadiazol-2-yl)-1,1,1-trifluoro-3-((5-fluoro-2-(1-(2-fluorobenzyl)-5-(isoxazol-3-yl)-1H-pyrazol-3-yl)pyrimidin-4-yl)amino)propan-2-ol], the EC50 under setting [1] was below 100 nM.

In the case of `CC(=O)c1cc(-c2ncc(F)c(NCc3cc(=O)[nH]o3)n2)nn1Cc1ccccc1F` [Compound 70], the 50% effective concentration (EC50) under setting [1] fell in the range of 100 to 1000 nM.

For `CC(=O)c1cc(-c2ncc(F)c(N3CCNC(C(F)(F)F)C3)n2)nn1Cc1ccccc1F` (stereo not drawn) [Compound 71], the EC50 under setting [1] lay within 100 to 1000 nM.

Turning to `CC(=O)c1cc(-c2ncc(F)c(NC[C@@H](C(=O)O)C(C)C)n2)nn1Cc1ccccc1F` [Compound 72], under setting [1], the EC50 was in the range of 100 to 1000 nM.

As for `CC(=O)c1cc(-c2ncc(F)c(N(C)C[C@@H](C(=O)O)C(C)C)n2)nn1Cc1ccccc1F` [Compound 73], the EC50 under setting [1] was above 1000 nM.

Take `CCOC(=O)[C@H](CN(C)c1nc(-c2cc(C(C)=O)n(Cc3ccccc3F)n2)ncc1F)C(C)C` [Compound 74]: the EC50 under setting [1] was 100 to 1000 nM.

With `O=C(Cc1cc(=O)o[nH]1)Nc1ccnc(-c2cc(-c3ccon3)n(Cc3ccccc3F)n2)n1` [Compound 75], the EC50 under setting [1] lay in the range of 100 to 1000 nM.

On to `CC(=O)c1cc(-c2ncc(F)c(NCCS(N)(=O)=O)n2)nn1Cc1ccccc1F` [Compound 76], for which the half-maximal effective concentration (EC50) under setting [1] lay within 100 to 1000 nM.
